The record followed here is US20020098552A1, “Method for producing xanthosine-5'-monophosphate by fermentation using mutant strains of Coryneform bacteria” (priority 2000, published 2002).

In experiment [1] the test system is Corynebacterium ammoniagenes AGRI93-38 (VKPM B-8003). The experiment is described as follows: Growth of the rifampicin-resistant mutant with rifampicin. Format: cell-based. Particulars: mutant strain AGRI93-38. On the procedure:
The parental strain Corynebacterium ammoniagenes AGRI45-11 (VKPM B-8009) was streaked onto PYM medium of Example 1, containing 5, 15, 30 or 50 μg/ml of rifampicin instead of glycine and inoculated plates were incubated at 34° C. for 3 days. The mutants resistant to rifampicin was selected from among spontaneously appeared colonies. Among the mutants the most productive strain Corynebacterium ammoniagenes AGRI93-38 (VKPM B-8003) was selected.

Experiment [2] deals with Corynebacterium ammoniagenes AGRI45-11 (VKPM B-8009). It counts as cell-based. Conditions: for Effect on growth of the XMP producer strain: in high concentration, strain AGRI45-11. As to the method:
(§1) Corynebacterium ammoniagenes AGRI45-11 (VKPM B-8009) was treated with 50 μg/ml of NTG for 20 minutes. Then cells were plated on PYM medium having the composition (g/L): peptone—10.0, yeast extract—10.0, meat extract—5.0, NaCl—2.5, agar—20.0, and containing 40 g/L, or 50 g/L, or 60 g/L glycine. The inoculated plates were incubated at 30° C. for 5 days.
Corynebacterium ammoniagenes AGRI45-11 (VKPM B-8009) was treated with NTG, and cells were plated on the PYM medium as in Example 1, containing 45 μg/ml, or 50 μg/ml, or 55 μg/ml, or 60 μg/ml polymyxin. The inoculated plates were incubated at 30° C. for 5 days.
The parental strain Corynebacterium ammoniagenes AGRI45-11 (VKPM B-8009) was streaked onto PYM medium of Example 1, containing 5, 15, 30 or 50 μg/ml of rifampicin instead of glycine and inoculated plates were incubated at 34° C. for 3 days. The mutants resistant to rifampicin was selected from among spontaneously appeared colonies.
A series of mutants resistant to 50 or 100 μg/ml oligomycin was selected from the strain Corynebacterium anmoniagenes AGRI45-11 (VKPM B-8009) using the procedure, described in the Example 1, but oligomycin was used instead of glycine.
Corynebacterium ammoniagenes AGRI45-11 (VKPM B-8009) was treated with NTG, and cells were plated on PYM medium as in Example 1, containing 2, 4 or 6 μg/ml of CCCP instead of glycine. The inoculated plates were incubated at 30° C. for 5 days. […] This strain and the parent strain Corynebacterium ammoniagenes AGRI45-11 (VKPM B-8009) were each cultivated at 32° C. for 20 h with aeration in a seed medium as in the Example 1. Then 0.3 ml of the obtained culture was inoculated into 3 ml of the fermentation medium of the Example 1, in 20×200 mm test tubes, and cultivated at 32° C. for 72 hours with a rotary shaker. After the cultivation, an accumulated amount of XMP in the medium was determined by known method.
Corynebacterium ammoniagenes AGRI45-11 (VKPM B-8009) was treated with NTG as in Example 1, aliquots were introduced into 20×200 mm test tubes and incubated at 32° C. for 20 h with shaking in minimal medium having the following composition (see below) with a rotary shaker. Then the cells were collected and plated on the minimal medium agar and containing several combinations of the inhibitors:
(§2) The mutants resistant to the analogue were obtained using the procedure described in Example 6, except for the only combinations of the inhibitors was applied: DL-methionine sulfone-10 mg/ml +DL-methionine-20 mg/ml.

Experiment [3] relates to Corynebacterium ammoniagenes AGRI11-51 (VKPM B-8005). Nature of the experiment: Growth of the methionine sulfoxide-resistant mutant with DL-methionine sulfoxide + DL-methionine. It counts as cell-based. Conditions: mutant strain AGRI11-51. As to the method: Then the cells were collected and plated on the minimal medium agar and containing several combinations of the inhibitors:
Mutants which appeared after 4 to 8 days incubation were picked up and tested for their XMP productivity. Among them the strain Corynebacterium ammoniagenes AGRI11-51 (VKPM B-8005) was selected. This strain and the parent strain Corynebacterium anmoniagenes AGRI45-11 (VKPM B-8009) were each cultivated at 32° C. for 20 h with aeration in a seed medium as in the Example 1. Then 0.3 ml of the obtained culture was inoculated into 3 ml of the fermentation medium of the Example 1, in 20×200 mm test tubes, and cultivated at 32° C. for 72 hours with a rotary shaker. After the cultivation, an accumulated amount of XMP in the medium was determined by known method.

For experiment [4], the system named is Corynebacterium ammoniagenes AGRI101-51 (VKPM B-8010). Nature of the experiment: Growth of the polymyxin-resistant mutant in the presence of polymyxin. It counts as cell-based. Conditions: mutant strain AGRI 101-51.
In experiment [5] the test system is Gram-positive bacterium Corynebacterium ammoniagenes. The experiment is described as follows: Growth inhibition of Corynebacterium ammoniagenes by polymyxin B. Particulars: high concentrations. Format: cell-based. From the text:
Polymyxin B is a polypeptide antibiotics effective against Gram-negative bacteria. The cell membrane of the bacteria is considered to be the target of the antibiotic. […] The mutations conferring resistance to polymyxin B may affect cytoplasmic membrane and mimic a stress condition, inducing XMP efflux transporter. Therefore the mutants resistant to growth inhibition by the drug were selected.

Experiment [6] has as its system Corynebacterium ammoniagenes AGRI10-52 (VKPM B-8006). Particulars: mutant strain AGRI10-52. As to the method: as §1
The test system of experiment [7] is Corynebacterium ammoniagenes AGRI47-51 (VKPM B-8007). Nature of the experiment: Growth of the methionine sulfone-resistant mutant with DL-methionine sulfone + DL-methionine. It counts as cell-based. Particulars: mutant strain AGRI47-51. As to the method:
as §2
Among the mutants which appeared after 4 to 8 days incubation the strain Corynebacterium ammoniagenes AGRI47-51 (VKPM B-8007) was selected. This strain and the parent strain Corynebacterium ammoniagenes AGRI45-11 (VKPM B-8009) were each cultivated at 32° C. for 20 h with aeration in a seed medium as in the Example 1. Then 0.3 ml of the obtained culture was inoculated into 3 ml of the fermentation medium of the Example 1, in 20×200 mm test tubes, and cultivated at 32° C. for 72 hours with a rotary shaker.

Experiment [8] relates to Corynebacterium ammoniagenes AGRI67-52 (VKPM B-8004). Nature of the experiment: Growth of the oligomycin-resistant mutant in the presence of oligomycin. Format: cell-based. Conditions: mutant strain AGRI67-52. As to the method:
A series of mutants resistant to 50 or 100 μg/ml oligomycin was selected from the strain Corynebacterium anmoniagenes AGRI45-11 (VKPM B-8009) using the procedure, described in the Example 1, but oligomycin was used instead of glycine. […] The best mutant, strain Corynebacterium ammoniagenes AGRI67-52 (VKPM B-8004) when tested in parallel as in Example 1 accumulated about 22 % more XMP than the parental strain Corynebacterium ammoniagenes AGRI45-11 (VKPM B-8009) (Table 4 ).

In experiment [9] the test system is Corynebacterium ammoniagenes AGRI97-52 (VKPM B-8008). Nature of the experiment: Growth of the CCCP-resistant mutant with CCCP. Format: cell-based. Conditions: mutant strain AGRI97-52.

Take `CO[C@H]1/C=C/O[C@@]2(C)Oc3c(C)c(O)c4c(O)c(c(/C=N/N5CCN(C)CC5)c(O)c4c3C2=O)NC(=O)/C(C)=C\C=C\[C@H](C)[C@H](O)[C@@H](C)[C@@H](O)[C@@H](C)[C@H](OC(C)=O)[C@@H]1C` [rifampicin]: the “Growth with 15 μg/ml rifampicin” value in [1] is “+”; in [2] (15 μg/ml rifampicin, parent strain AGRI45-11), “−”.

Consider `C[S+]([O-])CCC(N)C(=O)O` (racemic) [DL-methionine sulfoxide], for which the “Growth with 10 mg/ml DL-methionine sulfoxide + 20 mg/ml DL-methionine” value is recorded as “+” in experiment [3] and “−” in experiment [2] (10 mg/ml DL-methionine sulfoxide + 20 mg/ml DL-methionine, parent strain AGRI45-11). For the same compound, the “Effect on growth of the XMP producer strain” value (“Effect on growth” for short) in [2] is given as “inhibited the growth”.

Take Polymyxin B: the “Growth in the presence of 45 μg/ml polymyxin” value was “+” in experiment [4] and “−” in experiment [2] (45 μg/ml polymyxin, parent strain AGRI45-11). The “Concentration that inhibited the growth” value in experiment [5] fell in the range of 40 to 50 µg/mL.

With `NCC(=O)O` [glycine], the “Growth in the presence of 6% glycine” value is reported as “+” in experiment [6] and “−” in [2] (6% glycine, parent strain AGRI45-11).

As to `CS(=O)(=O)CCC(N)C(=O)O` (racemic) [DL-methionine sulfone], the “Growth with 10 mg/ml DL-methionine sulfone + 20 mg/ml DL-methionine” value in experiment [7] was “+”; in experiment [2] (10 mg/ml DL-methionine sulfone + 20 mg/ml DL-methionine, parent strain AGRI45-11), “−”. Besides, the “Effect on growth” value in experiment [2] is reported as “inhibited the growth”.

Consider `CC[C@H]1/C=C/C=C/C[C@@H](C)[C@H](O)[C@@](C)(O)C(=O)[C@@H](C)[C@H](O)[C@@H](C)C(=O)[C@@H](C)[C@H](O)[C@@H](C)/C=C/C(=O)O[C@@H]2[C@H](C)[C@H](CC1)O[C@]1(CC[C@H](C)[C@H](C[C@@H](C)O)O1)[C@H]2C` [oligomycin], for which the “Growth in the presence of 100 μg/ml oligomycin” value in experiment [8] was “+”; in experiment [2] (100 μg/ml oligomycin, parent strain AGRI45-11), “−”.

Consider `N#CC(C#N)=NNc1cccc(Cl)c1` [CCCP, Carbonyl cyanide m-chlorophenyl hydrazone], for which the “Growth with 4 μg/ml CCCP” value in experiment [9] is reported as “+”; in experiment [2] (4 μg/ml CCCP, parent strain AGRI45-11), “−”.

As for `CSCCC(N)C(=O)O` (racemic) [DL-methionine], the “Effect on growth” value in experiment [2] is reported as “inhibited the growth”.
